According to patent US11022604B2, “Dock derived compound against laminin receptor (37 LR) and uses thereof” (Purdue Research Foundation, priority 2017, dated 2021):

Tested on: PC-3 cells
Test: Wound healing (scratch) assay
Type: cell-based
Details: PC3, 50 uM, 48 h
Procedure: PC-3 cells were treated with 1, 10, 50 μM C3 or DMSO control after scratch formation and images were recorded using a brightfield microscope as described in the methods. […] Brightfield images were quantified using the t-scratch program and represented as % scratch closure after 48 hours of migration compared to a 0 hour control (n=9, mean±SEM). A one-way ANOVA test was used for statistical analysis (p<0.05).
Wound Healing Assay. PC-3 cells were seeded in 6 well plates at 3×10^5 cells per well in complete media until the cells reached confluency. Three horizontal and three vertical scratches were made in the confluent monolayers using a standard 200 μL pipette tip and cellular debris were removed by washing with 1×DPBS three times. 1×RPMI-1640 supplemented with C3 or DMSO was added and cells were incubated for 48 hours as described previously. […] Images were uploaded and analyzed for scratch geometry using the tscratch program (96). First, global thresholding was performed, then individual images were manually inspected for single image threshold adjustment and scratch geometries were quantified. […] The samples were analyzed using the Dionex UltiMate 3000 RSLC Nano System coupled to the Q Exactive™ HF Hybrid Quadrupole-Orbitrap MS (Thermo Scientific). […] Label free quantitation (LFQ) was performed using a minimum ratio count of 2 with fast LFQ. […]

O=C(c1cc(F)cc2c1OCOC2)N1CCN(C2c3ccccc3-c3ccccc32)CC1 [Compound C3, [4-(9h-fluoren-9-yl)piperazino](6-fluoro-4h-1,3-benzodioxin-8-yl)methanone]
prevention of wound closure: ~70%
